Test results published in ChEMBL document CHEMBL5550160, “Leveraging a rationally designed veliparib-based anilide eliciting anti-leukemic effects for the design of pH-responsive polymer nanoformulation” (Eur J Med Chem, 2024).
Active and inactive are the calls of the source. The calls are words filed in the database; no cut-off is given here.

Tests used:
PC-3 = assay: cells; format: functional, cell-based; details: Homo sapiens
Description: Antiproliferative activity against human PC-3 cells assessed as inhibition of cell growth by MTT assay

SiHa = assay: cells; format: functional, cell-based; details: Homo sapiens
Description: Antiproliferative activity against human SiHa cells assessed as inhibition of cell growth by MTT assay

[1] = target: T1, Protein deacetylase HDAC6 (Homo sapiens) (UniProt Q9UBN7); assay: Inhibition of HDAC6 (unknown origin) using p53 residues 379 to 382 [RHKK(Ac)] as fluorogenic substrate assessed as residual activity at 1 x 10^-5M (reference value: 101.06%); details: dose 1.0 10^-5M
T1 sequence (whole entry): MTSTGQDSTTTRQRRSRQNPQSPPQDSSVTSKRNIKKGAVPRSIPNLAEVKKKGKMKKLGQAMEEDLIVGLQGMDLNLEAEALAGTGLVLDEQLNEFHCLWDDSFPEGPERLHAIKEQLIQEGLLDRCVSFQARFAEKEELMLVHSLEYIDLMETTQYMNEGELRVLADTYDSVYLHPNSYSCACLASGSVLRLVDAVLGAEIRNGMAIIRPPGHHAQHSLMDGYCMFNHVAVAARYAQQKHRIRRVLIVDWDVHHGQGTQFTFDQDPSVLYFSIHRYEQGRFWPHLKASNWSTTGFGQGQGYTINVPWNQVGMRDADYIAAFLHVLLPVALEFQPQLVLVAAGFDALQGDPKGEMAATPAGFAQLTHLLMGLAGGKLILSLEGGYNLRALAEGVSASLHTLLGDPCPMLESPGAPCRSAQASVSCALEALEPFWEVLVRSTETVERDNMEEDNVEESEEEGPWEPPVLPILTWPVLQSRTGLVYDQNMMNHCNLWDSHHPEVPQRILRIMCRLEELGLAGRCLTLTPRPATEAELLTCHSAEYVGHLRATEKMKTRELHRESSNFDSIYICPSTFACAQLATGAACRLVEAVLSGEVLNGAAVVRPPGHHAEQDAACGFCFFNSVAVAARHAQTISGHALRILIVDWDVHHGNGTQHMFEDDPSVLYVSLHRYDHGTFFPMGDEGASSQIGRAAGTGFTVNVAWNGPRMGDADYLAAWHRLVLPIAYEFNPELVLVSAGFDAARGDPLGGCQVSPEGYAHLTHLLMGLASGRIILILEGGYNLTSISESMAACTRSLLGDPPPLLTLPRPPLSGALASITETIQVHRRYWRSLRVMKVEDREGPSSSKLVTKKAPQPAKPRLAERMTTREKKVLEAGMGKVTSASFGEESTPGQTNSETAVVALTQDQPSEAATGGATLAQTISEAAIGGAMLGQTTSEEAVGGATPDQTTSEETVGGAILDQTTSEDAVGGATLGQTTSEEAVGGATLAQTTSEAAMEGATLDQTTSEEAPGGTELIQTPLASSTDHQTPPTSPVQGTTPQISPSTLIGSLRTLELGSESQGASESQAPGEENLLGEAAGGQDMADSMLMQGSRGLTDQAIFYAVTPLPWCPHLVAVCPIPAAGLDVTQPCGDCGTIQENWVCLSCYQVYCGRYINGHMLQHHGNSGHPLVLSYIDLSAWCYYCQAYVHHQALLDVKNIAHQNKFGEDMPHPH

Histone deacetylase 1 = Histone deacetylase 1 (Homo sapiens, UniProt Q13547); assay: Inhibition of HDAC1 (unknown origin) using p53 residues 379 to 382 [RHKK(Ac)] as fluorogenic substrate assessed as residual activity at 1.23 x 10^-7M (reference value: 98.06%); details: dose 1.23 10^-7M
Histone deacetylase 2 = Histone deacetylase 2 (Homo sapiens, UniProt Q92769); assay: Inhibition of HDAC2 (unknown origin) assessed as residual activity at 1.37 x 10^-8M (reference value: 99.81%); details: dose 1.37 10^-8M
Histone deacetylase 3 [2] = target: T2, Histone deacetylase 3 (Homo sapiens, UniProt O15379); assay: Inhibition of HDAC3 (unknown origin) using p53 residues 379 to 382 [RHKK(Ac)] as fluorogenic substrate assessed as residual activity at 1.11 x 10^-6M (reference value: 103.08%); details: dose 1.1 10^-6M
Histone deacetylase 3 [3] = target: T2, Histone deacetylase 3; assay: Inhibition of HDAC3 (unknown origin) using p53 residues 379 to 382 [RHKK(Ac)] as fluorogenic substrate assessed as residual activity at 3.70 x 10^-7M (reference value: 103.08%); details: dose 3.7 10^-7M
Histone deacetylase 3 [4] = target: T2, Histone deacetylase 3; assay: Inhibition of HDAC3 (unknown origin) using p53 residues 379 to 382 [RHKK(Ac)] as fluorogenic substrate assessed as residual activity at 4.57 x 10^-9M (reference value: 103.08%); details: dose 4.57 10^-9M
[5] = target: T1, Protein deacetylase HDAC6 (Homo sapiens); assay: Inhibition of HDAC6 (unknown origin) using p53 residues 379 to 382 [RHKK(Ac)] as fluorogenic substrate assessed as residual activity at 1.37 x 10^-8M (reference value: 101.06%); details: dose 1.37 10^-8M
[6] = target: Histone deacetylase 9 (Homo sapiens) (UniProt Q9UKV0); assay: Inhibition of HDAC9 (unknown origin) assessed as residual activity at 4.57 x 10^-9M (reference value: 97.55%); details: dose 4.57 10^-9M
[7] = target: T3, Polyamine deacetylase HDAC10 (Homo sapiens) (UniProt Q969S8); assay: Inhibition of HDAC10 (unknown origin) assessed as residual activity at 4.12 x 10^-8M (reference value: 101.54%); details: dose 4.12 10^-8M
T3 sequence (whole entry): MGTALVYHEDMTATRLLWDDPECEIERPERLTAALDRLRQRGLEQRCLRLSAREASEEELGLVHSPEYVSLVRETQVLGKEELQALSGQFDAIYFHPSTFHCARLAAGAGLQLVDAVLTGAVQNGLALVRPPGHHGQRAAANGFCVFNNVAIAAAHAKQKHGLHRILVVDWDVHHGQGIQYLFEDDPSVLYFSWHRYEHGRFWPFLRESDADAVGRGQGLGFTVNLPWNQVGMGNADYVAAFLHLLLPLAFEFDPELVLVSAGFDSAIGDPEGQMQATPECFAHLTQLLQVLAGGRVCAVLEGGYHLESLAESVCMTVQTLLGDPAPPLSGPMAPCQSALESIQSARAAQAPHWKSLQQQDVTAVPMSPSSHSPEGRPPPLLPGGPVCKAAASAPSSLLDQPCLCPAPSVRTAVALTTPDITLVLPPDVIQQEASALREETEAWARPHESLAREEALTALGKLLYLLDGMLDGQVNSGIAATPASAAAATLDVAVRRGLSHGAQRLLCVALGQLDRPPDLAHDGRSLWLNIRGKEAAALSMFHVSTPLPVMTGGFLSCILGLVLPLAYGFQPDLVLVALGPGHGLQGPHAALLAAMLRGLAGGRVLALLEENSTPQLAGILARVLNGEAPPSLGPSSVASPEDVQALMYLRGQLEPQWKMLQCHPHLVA

[8] = target: Class 1 histone deacetylase (Homo sapiens) (UniProt Q13547+O15379+Q92769+Q9BY41); assay: Inhibition of class 1 HDAC in human HL-60 cells assessed as upregulation of acetyl histone H3 protein expression 0.5 to 1 times IC50 by Western blot analysis; format: cell-based
HL-60 = assay: Downregulation of PARP-2 protein expression in human HL-60 cells by Western blot analysis; format: functional, cell-based

T2 sequence (O15379 whole entry, the tested form may be a part): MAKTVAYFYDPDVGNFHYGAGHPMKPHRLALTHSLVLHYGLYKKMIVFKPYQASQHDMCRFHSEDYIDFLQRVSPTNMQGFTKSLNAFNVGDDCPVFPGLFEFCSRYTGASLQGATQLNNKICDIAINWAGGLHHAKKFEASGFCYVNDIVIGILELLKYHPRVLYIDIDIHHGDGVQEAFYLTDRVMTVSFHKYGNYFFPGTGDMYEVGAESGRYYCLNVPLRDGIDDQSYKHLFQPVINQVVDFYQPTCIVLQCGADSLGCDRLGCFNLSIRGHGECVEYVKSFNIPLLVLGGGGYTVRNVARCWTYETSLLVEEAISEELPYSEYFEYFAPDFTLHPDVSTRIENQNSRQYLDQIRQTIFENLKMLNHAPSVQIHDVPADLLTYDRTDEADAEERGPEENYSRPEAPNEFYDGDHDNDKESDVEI
Chain of Histone deacetylase 2 (Q92769 whole entry, the tested form may be a part): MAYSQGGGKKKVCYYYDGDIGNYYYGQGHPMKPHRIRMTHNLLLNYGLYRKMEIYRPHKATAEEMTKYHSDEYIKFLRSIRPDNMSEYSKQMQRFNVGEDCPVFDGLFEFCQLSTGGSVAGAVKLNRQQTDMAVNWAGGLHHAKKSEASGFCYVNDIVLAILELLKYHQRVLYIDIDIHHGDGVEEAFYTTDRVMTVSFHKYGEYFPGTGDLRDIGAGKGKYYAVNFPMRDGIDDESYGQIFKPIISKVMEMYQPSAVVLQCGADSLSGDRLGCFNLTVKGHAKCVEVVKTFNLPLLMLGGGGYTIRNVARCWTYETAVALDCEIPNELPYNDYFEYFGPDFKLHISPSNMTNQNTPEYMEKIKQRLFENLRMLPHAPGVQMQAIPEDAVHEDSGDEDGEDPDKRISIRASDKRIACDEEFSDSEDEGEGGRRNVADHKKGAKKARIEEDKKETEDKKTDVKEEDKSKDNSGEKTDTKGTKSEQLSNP
Chain of Histone deacetylase 1 (Q13547 whole entry, the tested form may be a part): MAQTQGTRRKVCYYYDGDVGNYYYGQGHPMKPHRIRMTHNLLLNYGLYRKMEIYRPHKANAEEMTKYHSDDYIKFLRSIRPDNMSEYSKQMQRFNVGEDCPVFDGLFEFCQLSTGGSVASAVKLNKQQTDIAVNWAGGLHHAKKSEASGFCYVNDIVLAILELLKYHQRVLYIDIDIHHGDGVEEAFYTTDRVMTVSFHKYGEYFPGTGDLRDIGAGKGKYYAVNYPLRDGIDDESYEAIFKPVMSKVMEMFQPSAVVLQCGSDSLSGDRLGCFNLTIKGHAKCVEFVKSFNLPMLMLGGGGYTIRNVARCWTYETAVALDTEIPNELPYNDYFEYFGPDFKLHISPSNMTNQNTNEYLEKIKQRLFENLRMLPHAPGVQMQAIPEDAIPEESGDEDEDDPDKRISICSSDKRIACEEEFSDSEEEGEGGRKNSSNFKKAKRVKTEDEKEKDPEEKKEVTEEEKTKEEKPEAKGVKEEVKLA
Chain of Histone deacetylase 9 (Homo sapiens) (Q9UKV0 whole entry): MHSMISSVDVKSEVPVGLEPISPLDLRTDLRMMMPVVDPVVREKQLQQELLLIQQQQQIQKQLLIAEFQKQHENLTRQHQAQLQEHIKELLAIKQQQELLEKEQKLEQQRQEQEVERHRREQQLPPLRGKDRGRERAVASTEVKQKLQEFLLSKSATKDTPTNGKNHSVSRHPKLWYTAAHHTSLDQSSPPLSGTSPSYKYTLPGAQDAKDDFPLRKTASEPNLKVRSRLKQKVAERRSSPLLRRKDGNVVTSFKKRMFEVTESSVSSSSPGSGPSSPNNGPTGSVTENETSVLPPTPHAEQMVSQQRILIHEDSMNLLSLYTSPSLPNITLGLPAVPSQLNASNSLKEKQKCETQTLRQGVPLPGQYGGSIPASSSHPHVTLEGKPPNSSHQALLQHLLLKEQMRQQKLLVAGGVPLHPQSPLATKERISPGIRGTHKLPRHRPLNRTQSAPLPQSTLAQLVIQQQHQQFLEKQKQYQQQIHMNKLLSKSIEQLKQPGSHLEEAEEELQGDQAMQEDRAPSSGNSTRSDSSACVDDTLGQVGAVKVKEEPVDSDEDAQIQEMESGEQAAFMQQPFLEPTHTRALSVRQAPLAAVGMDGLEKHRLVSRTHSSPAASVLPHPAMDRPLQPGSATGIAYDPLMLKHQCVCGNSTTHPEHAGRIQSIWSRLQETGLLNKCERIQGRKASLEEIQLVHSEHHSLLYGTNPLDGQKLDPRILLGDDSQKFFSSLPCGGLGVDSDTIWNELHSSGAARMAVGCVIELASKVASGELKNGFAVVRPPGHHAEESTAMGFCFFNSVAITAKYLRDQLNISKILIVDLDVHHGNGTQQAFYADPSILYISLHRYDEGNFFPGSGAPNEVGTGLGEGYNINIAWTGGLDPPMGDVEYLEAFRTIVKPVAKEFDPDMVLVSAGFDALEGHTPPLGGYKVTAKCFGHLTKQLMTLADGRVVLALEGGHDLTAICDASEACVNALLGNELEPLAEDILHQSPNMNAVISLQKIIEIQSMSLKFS

`NC(=O)c1cccc2[nH]c(-c3ccc(NCc4ccc(C(=O)Nc5ccccc5N)cc4)cc3)nc12` was tested, and the IC50 (PC-3) was 4.01 µM, the IC50 (SiHa) was > 10 µM and the Activity [1] was 107%. It also gave an Activity (Histone deacetylase 1) of 31.3%, an Activity (Histone deacetylase 2) of 86.2% and an Activity (Histone deacetylase 3 [2]) of 21.7%. The Activity (Histone deacetylase 3 [3]) was 54.9%, the Activity (Histone deacetylase 3 [4]) was 111% and the Activity [5] was 103%. The Activity [6] was 82.9%, the Activity [7] was 102% and the inhibition [8] was “Active”. For the same molecule, the Activity (HL-60) was “Active”.
